The assay concerns Culex tarsalis mosquitoes. Put plainly: Observation of mosquitoes feeding upon scented, spun (cotton candy) baits. The class given is in vivo. As to conditions: for Number of mosquitos observed feeding each scent: scented spun cotton candy bait. An excerpt: One strategy for a solid bait that we tested was a “cotton candy” or spun sugar bait (FIG. 11). The cotton candy could be pressed into the feeding well, over and on top of a dried enzyme pellet and a ball bearing for magnetic mixing. We anticipated this would allow a large surface area for mosquitoes to feed, as well as dissolve instantly upon adding a drop of rehydration buffer. Plain cotton candy made from pure sucrose turned out to be unstable upon storage for more than a few days, and we subsequently devised a way to modify the cotton candy by melting a polymer (PEG) with the sugar prior to spinning, to stabilize it against shriveling in ambient humidity. […] Based on this experiment (Table 1), we determined that both honey and plumeria could be used as attractants for sugar-feeding Culex tarsalis mosquitoes.

With `O=CCc1ccccc1` [Phenylacetaldehyde], the “Number of mosquitos observed feeding each scent” value by setting is: (Day 0) 0; (Day 1) 5; (Day 2) 1; (Day 3) 4; (Day 4) 3. Further, the “Number of mosquitos observed feeding each scent, Sum” value (Sum of Day 0 to Day 4) worked out at 13.

(Values after US11366116B1, “Real time autonomous surveillance of pathogens” (priority 2017, dated 2022).)
